According to US9187458B2, “Cyanoquinoline derivatives” (Tianjin Hemay Bio-Tech Co., LTD., priority 2010, dated 2015):
pEC50, pIC50: −log10 of the molar value. Structures can show the parent of a compound that is named as a salt.

Columns and labels:
A431 cells = test: A431 Cell Growth Inhibition Test (MTT Assay); format: cell-based, human; details: Homo sapiens, A-431, 68 h, compound 1 μM, 68 h incubation, read-out: Growth Inhibition Ratio (%)
Protocol: A431 Cell Growth Inhibition Test (MTT Assay)
1. Cell strains: A431 (human epithelial […] cell strains);
Culture medium: 45% DMEM, 45% F12+10% FBS;
(§1) 1. A plate (10 cm) of cells in logarithmic growth phase normally cultured was collected;
(§2) 2. The culture solution was sucked out. The plate was washed with 5 ml of PBS 1-2 times;
3. PBS was sucked out, and 2 ml of 0.25% pancreatin was added to infiltrate the cells for 1 min;
4. The pancreatin was sucked out, and the culture plate was placed in an incubator. Digestion was carried out for about 15 min at 37° C.;
(§3) 5. 4 ml of complete culture solution was added in the culture plate to stop the digestion. The cells were carefully scoured with micropipette (1 ml) to give a uniform cell suspension. The suspension was implanted into a 96-well cell culture plate by 2500 cells/100 μl per well. The culture plate was incubated overnight under 5% CO2 at 37° C. In day 2, 100 μl of culture solution comprising the compound was added in each well, and further incubated for 68 h under 5% CO2 at 37° C.
(§4) 6. The culture solution was sucked out;
7. 100 μl of serum-free culture solution containing 0.5 mg/ml MTT was added in each well, and incubated for 4 h;
(§5) 8. The culture solution was carefully sucked out;
9. 100 μl of DMSO was added into each well and vibrated to dissolve;
(§6) 10. OD values were determined at 490 nM.
(§7) 1. Calculation of Relative Inhibition Ratio The inhibition ratio of a compound on cell growth=(PC−n)/(PC−NC)×100%
IC50: concentration of a compound where inhibition ratio was 50%. IC50 values were fitted with Origin7.5.

BT-474 cells = test: BT-474 Cell Growth Inhibition Test (SRB Assay); format: cell-based, human; details: Homo sapiens, BT-474, 70 h, compound 1 μM, 70 h incubation, read-out: Growth Inhibition Ratio (%)
Protocol: BT-474 Cell Growth Inhibition Test (SRB Assay)
1. Cell strains: BT-474 (human breast tumor cell strains);
2. SRB: available from Sigmaaldrich, goods number: S9012, lot number: 047K3751. SRB was reserved at the room temperature. 0.4% (w/v) of working solution was formulated with 1% of glacial acetic acid. The solution was reserved at the temperature of 4° C.; anti-tumor compounds; DMSO.
Culture medium (90% EMEM+10% FBS+0.1 mM NEAA, reserved at 4° C.);
1. A plate (10 cm) of cells in logarithmic growth phase normally cultured was collected. The culture solution was sucked out. The plate was washed with 5 mL of PBS 1-2 times;
2. PBS was sucked out, and […] of 0.25% pancreatin was added to infiltrate the cells for 30 s;
3. The pancreatin was sucked out. The culture plate was pleaced in an incubator. Digestion was carried out for about 5 min at 37° C.;
4. 3 mL of complete culture solution was added to the culture plate to stop the digestion. The cells were carefully scoured with micropipette (1 ml) to give a uniform single cell suspension;
5. Cell suspension was counted. The suspension was diluted to 1×10^5/ml. The resulting suspension was developed uniformly on a plate. The plate was incubated under 5% CO2 at 37° C. overnight. In day 2, 80 μL of complete culture medium was added in each well and then 20 μL of culture solution comprising a compound was added. The mixture was incubated for 70 h under 5% CO2 at 37° C.
(§8) 6. The culture solution was sucked out. 100 uL of TCA fixed cells which were diluted to 10% were added to each well. The plate was kept in a refrigerator for 1 h at 4° C.
(§9) 7. TCA stationary liquid was sucked out. Each well was washed with 150 μL of ddH2O five times;
(§10) 8. After the stationary liquid was cleansed, the plate was dried in the air at the room temperature;
(§11) 9. 60 μL of SRB staining solution was added in each well. The well was stained for 15 min at the room temperature;
(§12) 10. The SRB staining solution was sucked out. Each well was washed with 150 μL of 1% glacial acetic acid five times;
(§13) 11. After the SRB staining solution was cleansed, the plate was dried in the air at the room temperature;
12. 100 μL of 10 mM Tris was added in each well. The plate was vibrated to dissolve out SRB;
(§14) 13. OD values were determined at 570 nM.
as §7
(§15) IC50: Concentration of a compound where inhibition ratio was 50%. IC50 values were fitted with Origin7.5.

CCRF-CEM/T cells = test: CCRF-CEM/T Cell Growth Inhibition Test (MTT Assay); format: cell-based; details: Homo sapiens, CCRF-CEM/T cells (resistant to paclitaxel), 72 h incubation
Protocol: CCRF-CEM/T Cell Growth Inhibition Test (MTT Assay)
Cell strains: CCRF-CEM/T (human acute lymphocytic cell leukemia cells);
triple lysate solution: 10% SDS, 5% isobutanol, 0.012M HCl.
1. Cells were cultured to exponential phase. The cells were suspension cells;
2. The cells were collected by centrifuge. The resulting cells were resuspended in a complete culture medium to a desired concentration. The cells suspension was implanted into a 96-well cell culture plate by 20000 cells per well. A compound was added in the wellsuch that the final volume of the system was 120 μl. The system was further incubated for 72 h under 5% CO2 at 37° C.
7. 30 μl of serum-free culture solution containing 2.5 mg/ml MTT was added in each well, and incubated for 3 h;
8. 150 μl of triple lysate solution was added in each well and placed to dissolve at the room temperature;
9. OD values were determined at 570 nM.
as §7, §15

Fadu cells = test: Fadu Cell Growth Inhibition Test (MTT Assay); format: cell-based; details: Homo sapiens, 72 h incubation
Protocol: Fadu Cell Growth Inhibition Test (MTT Assay)
Cell strains: Fudu (human head and neck cancer cell strains);
Culture medium: 90% EMEM+10% FBS;
as §1, §2
(§16) 3. PBS was sucked out. 1.5 ml of 0.25% pancreatin was added to infiltrate the cells for 1 min;
4. The pancreatin was sucked out. The culture plate was placed in an incubator. Digestion was carried out for about 5 min at 37° C.;
(§17) 5. 4.5 ml of complete culture solution was added to the culture plate to stop the digestion. The cells were carefully scoured with micropipette (1 ml) to give a uniform cell suspension. The suspension was implanted into a 96-well cell culture plate by 6000 cells/100 μl per well. The culture plate was incubated overnight under 5% CO2 at 37° C. In day 2, 100 μl of culture solution comprising a compound was added in each well, and further incubated for 72 h under 5% CO2 at 37° C.
as §4
(§18) 7. 100 μl of serum-free culture solution containing 0.5 mg/ml MTT was added in each well, and incubated for 3 h;
as §5
(§19) 9. 100 μl of DMSO was added in each welland vibrated to dissolve;
as §6, §7, §15

AsPC-1 cells = test: AsPC-1 Cell Growth Inhibition Test (MTT Assay); format: cell-based; details: Homo sapiens, ASPC1, 72 h incubation
Protocol: AsPC-1 Cell Growth Inhibition Test (MTT Assay)
Cell strains: AsPC-1 (human pancreatic cancer cell strains);
as §1, §2, §16
4. The pancreatin was sucked out. The culture plate was placed in an incubator. Digestion was carried out for about 7.5 min at 37° C.;
as §17, with “8000” for “6000”
as §4, §18, §5, §19, §6, §7, §15

NCI-H1650 cells = test: NCI-H1650 Cell Growth Inhibition Test (SRB Assay); format: cell-based; details: Homo sapiens, 72 h incubation
Protocol: NCI-H1650 Cell Growth Inhibition Test (SRB Assay)
1. Cell strains: NCI-H1650 (human non-small cell lung cancer cell strains);
2. SRB, 0.4% (w/v) working solution was formulated with 1% glacial acetic acid and reserved at 4° C.; antitumor compounds; DMSO
as §1
2. The culture solution was sucked out. The plate was washed with 5 mL of PBS 1-2 times;
3. 1.5 mL of 0.25% pancreatin was added to the plate to infiltrate the cells;
4. The pancreatin was sucked out. The culture plate was placed in an incubator. Digestion was carried out for about 3 min at 37° C.;
5. 4 mL of complete culture solution was added to the culture plate to stop the digestion. The cells were carefully scoured with micropipette (1 ml) to give a uniform single cell suspension. The suspensin was implanted into a 96-well cell culture plate by 6000 cells/100 μl per well. The culture plate was incubated overnight under 5% CO2 at 37° C. In day 2, 100 μl of culture solution comprising a compound was added in each well, and further incubated for 72 h under 5% CO2 at 37° C.;
as §8, §9, §10, §11, §12, §13
12. 100 μL of 10 mM Tris was added in each well, the plate was vibrated to dissolve out SRB;
as §14, §7, §15

NCI-H460 cells = test: NCI-H460 Cell Growth Inhibition Test (MTT Assay); format: cell-based; details: Homo sapiens, 72 h incubation
Protocol: NCI-H460 Cell Growth Inhibition Test (MTT Assay)
1. Cell strains: NCI-H460 (human large cell lung cancer cell strains);
as §1, §2
3. PBS was sucked out. 2 ml of 0.25% pancreatin was added to infiltrate the cells for 1 min;
4. The pancreatin was sucked out. The culture plate was placed in an incubator. Digestion was carried out for about 2 min at 37° C.;
as §3, with “was added to the culture” for “was added in the culture”, “solution comprising a compound was” for “solution comprising the compound was”, “incubated for 72 h under” for “incubated for 68 h under”
as §4, §18, §5
9. 100 μl of DMSO was added in each well and vibrated to dissolve;
as §6, §7, §15

EGFR-TK = target: T1, EGFR-TK (Homo sapiens, UniProt P00533); test: Inhibition Test on EGFR-TK (ELISA, PGT substrate); format: biochemical; details: 20 min at room temperature, read-out: Inhibition Activity (EC50) on EGFR-TK phosphorylation
T1 construct: EGFR-TK: intracellular epidermal growth factor receptor phosphorylase
Protocol: Inhibition Test on EGFR-TK
1. 2 mg/ml of PGT was diluted with PBS to 0.2 mg/ml. The resulting solution was added into elisa plate by 50 μl per well. The plate was placed in a refrigerator at 4° C. and coated overnight.
2. The coating solution was discarded to stop coating. The plate was washed three times with PBS, and then beaten to dryness.
3. The elisa plate was placed in a refrigerator at 4° C., drained out and stood for 2h.
4. The mother liquid of aqueous solution of each compound was diluted with double distilled water to four folds, i.e. a desirable concentration. Then, the compound was diluted and added in the corresponding elisa well by 25 μl/well.
5. […] of ATP solution was diluted with double distilled water to 50 folds and then sufficiently mixed. The resulting solution was separately added in each elisa well by 25 μl per well (except for the negative control).
6. EGFR kinase was diluted with 2×TKB to 800 folds. The solution was added in elisa well with 50 μl per well. Then, the enzyme reaction began. The elisa plate was immediately placed on a micro-oscillator and shaked to react for 20 min at the room temperature.
7. 2% of SDS was added in the elisa well to stop the reaction by adding 100 μl of SDS into each well. The solution was sufficiently mixed on the micro-oscillator to sufficiently mix for about 5 min.
8. The reaction solution was sucked out. The plate was washed four times with PBST. After the plate was beaten to dryness, 0.25 μg/ml of mice anti-phosphorylation tyrosine-HRP antibody which was diluted with blocking solution (3% solution of BSA in PBST) was added in the plate by 100 μl per well. The mixture was reacted for 30 min at the room temperature.
9. The antibody reaction solution was sucked out. The plate was washed four times with PBST. After the plate was beated to dryness, TMB peroxidase substrate was added to the plate by 100 μl/well. The mixture reacted in the dark for 15 min at the room temperature.
10. 100 μl of 2N H2SO4 was added in the plate to stop the chromogenic reaction. After the bubbles were cleansed, OD values were determined in ELIASA at 450 nm.
11. Formula for calculating inhibition percentage: […]

T1 sequence (P00533 669-1210 limits assumed): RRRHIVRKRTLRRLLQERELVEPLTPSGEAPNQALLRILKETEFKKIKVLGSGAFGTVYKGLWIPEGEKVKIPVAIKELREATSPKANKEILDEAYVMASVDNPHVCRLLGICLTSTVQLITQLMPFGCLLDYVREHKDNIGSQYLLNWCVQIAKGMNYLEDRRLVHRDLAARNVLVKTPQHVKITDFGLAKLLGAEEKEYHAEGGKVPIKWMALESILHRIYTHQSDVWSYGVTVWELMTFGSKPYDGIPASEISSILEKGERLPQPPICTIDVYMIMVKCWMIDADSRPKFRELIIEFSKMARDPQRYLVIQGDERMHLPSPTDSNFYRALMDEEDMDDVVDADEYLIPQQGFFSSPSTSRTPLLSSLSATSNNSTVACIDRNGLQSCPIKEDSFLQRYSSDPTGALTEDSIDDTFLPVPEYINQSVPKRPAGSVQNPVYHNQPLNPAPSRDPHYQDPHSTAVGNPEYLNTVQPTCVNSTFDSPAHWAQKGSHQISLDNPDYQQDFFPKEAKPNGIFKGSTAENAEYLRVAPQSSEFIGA

Compound | inhibition at 1 µM (A431 cells) | inhibition at 1 µM (BT-474 cells) | pIC50 (CCRF-CEM/T cells) | pIC50 (Fadu cells) | pIC50 (AsPC-1 cells) | pIC50 (NCI-H1650 cells) | pIC50 (NCI-H460 cells) | pEC50 (EGFR-TK)
CN(C)C/C=C/C(=O)Nc1cc2c(Nc3ccc(OCc4cccc(F)c4)c(Cl)c3)c(C#N)cnc2cc1O[C@H]1CCOC1 [Example 158, (S,E)-N-(4-(4-(3-FLUOROBENZYLOXY)-3-CHLOROPHENYLAMINO)-3-CYANO-7-(TETRAHYDROFURAN-3-YL-OXY)QUINOLIN-6-YL)-4-(DIMETHYLAMINO)-BUT-2-ENAMIDE] | 77% | 82% | 5.96 | 6.92 | 6.36 | 6.12 |  | 
CN(C)C/C=C/C(=O)Nc1cc2c(Nc3ccc(OCc4ccccn4)c(Cl)c3)c(C#N)cnc2cc1OC1CCOC1 (stereo not shown) [Example 3, (E)-N-(4-(3-CHLORO-4-(PYRIDIN-2-YL-METHOXY)PHENYLAMINO)-3-CYANO-7-(TETRAHYDROFURAN-3-YL-OXY)QUINOLIN-6-YL)-4-(DIMETHYLAMINO)-BUT-2-ENAMIDE HYDROCHLORIDE] | 85% |  |  |  |  | 6.09 |  | 
N#Cc1cnc2cc(OC3CCOC3)c(NC(=O)C=C3CCNCC3)cc2c1Nc1ccc(OCc2cccc(F)c2)c(Cl)c1 (stereo not shown) [Example 46, N-(4-(4-(3-FLUOROBENZYLOXY)-3-CHLOROPHENYLAMINO)-3-CYANO-7-(TETRAHYDROFURAN-3-YL-OXY)QUINOLIN-6-YL)-2-(PIPERIDIN-4-YLIDENE)ACETAMIDE] |  |  |  |  |  |  | 5.40 | 7.60
